Where two headings read alike, the source gives them in different places. Residues, ends and D or L forms follow the SMILES beside them. *: point of attachment. X1 = CCCCCCCCCCCCCCCC(=O)OCC(C*)OC(=O)CCCCCCCCCCCCCCC
Key:
[1] = molecular target: T1, human TLR2 (Homo sapiens, UniProt O60603); experiment: NF-kB activation in HEKBlue-hTLR2 cell line (SEAP reporter); format: cell-based
T1 construct: host or cells: HEK-Blue hTLR2 (HEK293-derived) cell line
Description: The potency of the compounds as activators of human and mouse TLR-2s was tested in an in vitro assay. The assay assesses NF-kB activation in the HEKBlue-mTLR-2 cell line. These cells have been stably transfected with mouse TLR-2 and express TLR-1 and TLR-6 endogenously at sufficient levels to allow for fully-functional TLR-1/2 and TLR-2/6 activation.
(§1) Toll-Like Receptor 2 (TLR2) stimulation is tested by assessing NF-kB activation in the HEKBlue-hTLR2 cell line. These cells have been stably transfected with human TLR2 and express TLR1 and TLR6 endogenously at a level sufficient to allow for fully-functional TLR1/2 and TLR2/6 activation. The activity of the test articles are tested on human TLR2 as potential agonists. The test articles are evaluated at seven concentrations and compared to control ligands. These steps are performed in triplicate.
as §1, with “stimulation was” for “stimulation is”, “assessing N-kB” for “assessing NF-kB”, “the HEK-Blue hTLR2” for “the HEKBlue-hTLR2”, “articles were” for “articles are”, “control ligands (see list below).” for “control ligands.”, “steps were” for “steps are”
The secreted embryonic alkaline phosphatase (SEAP) reporter is under the control of a promoter inducible by the transcription factor NF-κB. This reporter gene allows the monitoring of signaling through the TLR, based on the activation of NF-κB. In a 96-well plate (200 μL total volume) containing the appropriate cells (50,000-75,000 cells/well), 20 μL of the test article or the positive control ligand is added to the wells. The media added to the wells is designed for the detection of NF-κB induced SEAP expression. After a 20 hour incubation the optical density (OD) is read at 650 nm on a Molecular Devices SpectraMax 340PC absorbance detector.

[2] = system: A/Udorn/307/72 (H3N2) influenza virus; format: in vivo, C57BL/6 mice; settings: n=5, day 5 (Example 4)
[3] = in vitro; settings: human, hepatocytes
[4] = in vitro; settings: rat, hepatocytes
[5] = dog plasma, 37° C., 4 h time course
[6] = in vitro; settings: cynomolgus monkey, hepatocytes
[7] = in vitro; settings: rat, plasma
[8] = human plasma, 37° C., 4 h time course
[9] = in vitro; settings: dog, hepatocytes
[10] = Solubility in water; format: physicochemical
[11] = molecular target: T1, human TLR2; experiment: NF-κB luciferase reporter assay in HEK293T cells transfected with human TLR2 plasmid; format: cell-based; settings: dose range tested (12.2 pM to 3.125 pM), Example 9
Description: Comparison of the abilities of various compounds to stimulate luciferase activity in an NF-κB cell-based reporter system was determined. Compounds tested include INNA-006 (or compound (1)); INNA-013 (or compound (4)); INNA-014 (or compound (3)); INNA-015 (or compound (2)); INNA-010; INNA-011 (or compound (5)); INNA-012 (or compound (6)); and INNA-009. HEK293T cells, transiently co-transfected with a human TLR2 plasmid and a luciferase-NF-κB plasmid reporter system, were exposed to various dilutions of each compound. Successful receptor binding and subsequent signal transduction events were determined by measuring the luminescence due to luciferase activity (results shown in FIG. 11—left to right columns for each concentration are in the following order INNA-006 (or compound (1)); INNA-013 (or compound (4)); INNA-014 (or compound (3)); INNA-015 (or compound (2)); INNA-010; INNA-011 (or compound (5)); INNA-012 (or compound (6)); and INNA-009.
Comparison of the in vitro TLR2 agonistic activity of Pam3Cys-Ser-PEG3000 and INNA-006: HEK293T cells, transiently co-transfected with a human TLR2 plasmid and a luciferase-NF-κB plasmid reporter system, were exposed to various dilutions of INNA-006 or Pam3Cys-Ser-PEG3000. […]

T1 sequence (O60603 21-784): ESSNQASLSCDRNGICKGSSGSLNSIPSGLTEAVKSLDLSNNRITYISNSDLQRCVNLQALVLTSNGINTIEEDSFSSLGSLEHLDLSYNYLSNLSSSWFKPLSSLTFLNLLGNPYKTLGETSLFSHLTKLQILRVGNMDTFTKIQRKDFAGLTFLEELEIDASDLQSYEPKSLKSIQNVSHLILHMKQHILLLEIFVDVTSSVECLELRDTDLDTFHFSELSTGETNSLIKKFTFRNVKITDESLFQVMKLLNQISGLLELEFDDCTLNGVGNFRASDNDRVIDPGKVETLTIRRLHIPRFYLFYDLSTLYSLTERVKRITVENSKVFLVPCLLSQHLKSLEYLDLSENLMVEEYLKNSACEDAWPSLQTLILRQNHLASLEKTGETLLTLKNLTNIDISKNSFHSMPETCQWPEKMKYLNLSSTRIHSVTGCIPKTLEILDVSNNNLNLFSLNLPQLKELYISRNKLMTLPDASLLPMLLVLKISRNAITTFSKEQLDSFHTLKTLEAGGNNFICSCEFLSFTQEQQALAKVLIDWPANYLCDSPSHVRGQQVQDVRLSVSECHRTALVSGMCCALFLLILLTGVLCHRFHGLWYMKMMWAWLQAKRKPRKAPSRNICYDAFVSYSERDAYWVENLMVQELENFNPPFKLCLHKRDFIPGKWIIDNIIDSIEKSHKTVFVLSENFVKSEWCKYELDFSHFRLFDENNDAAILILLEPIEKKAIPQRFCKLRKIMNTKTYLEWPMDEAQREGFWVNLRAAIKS
T1 sequence (Q9Y2C9 32-796 partner): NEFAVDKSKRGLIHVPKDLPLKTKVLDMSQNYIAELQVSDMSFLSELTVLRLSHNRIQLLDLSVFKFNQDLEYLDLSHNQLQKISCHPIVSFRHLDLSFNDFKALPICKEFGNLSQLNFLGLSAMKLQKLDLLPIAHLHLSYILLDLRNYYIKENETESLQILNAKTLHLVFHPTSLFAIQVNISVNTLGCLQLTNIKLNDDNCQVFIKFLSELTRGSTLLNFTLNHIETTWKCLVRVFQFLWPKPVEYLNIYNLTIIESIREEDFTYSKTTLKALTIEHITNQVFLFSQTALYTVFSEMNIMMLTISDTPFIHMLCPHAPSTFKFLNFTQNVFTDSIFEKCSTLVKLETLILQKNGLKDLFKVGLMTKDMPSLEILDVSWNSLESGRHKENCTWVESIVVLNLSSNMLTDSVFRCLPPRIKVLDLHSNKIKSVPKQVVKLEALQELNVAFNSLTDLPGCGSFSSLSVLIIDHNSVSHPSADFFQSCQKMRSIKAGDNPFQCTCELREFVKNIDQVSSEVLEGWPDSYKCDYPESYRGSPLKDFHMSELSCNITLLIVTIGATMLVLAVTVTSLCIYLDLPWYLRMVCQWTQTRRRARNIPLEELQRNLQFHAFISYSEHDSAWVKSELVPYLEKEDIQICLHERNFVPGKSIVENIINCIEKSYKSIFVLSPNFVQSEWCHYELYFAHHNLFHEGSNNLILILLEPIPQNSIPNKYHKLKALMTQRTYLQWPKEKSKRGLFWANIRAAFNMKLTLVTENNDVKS

With CCCCCCCCCCCCCCCC(=O)OCC(CSCC(N)C(=O)NC(CO)C(=O)NC(CCCCN)C(=O)NC(CCCCN)C(=O)NC(CCCCN)C(=O)NC(CCCCN)C(=O)O)OC(=O)CCCCCCCCCCCCCCC (stereo not drawn) [INNA-005, Pam2Cys—Ser—Lys—Lys—Lys—Lys, reference compound] (H-C(X1)SKKKK-OH; configuration not given here) the “TLR2 activation, potency in words” value ([1]; Example 2) was “activated human TLR2”, the EC50 ([1]; agonist activity against Human TLR-2 in vitro) was 3.7 pM and the “progression of influenza virus to the lungs (lung viral titre)” value (shortened to “progression of influenza virus”) ([2]; 0.005 nmoles intranasal 1 day prior to 500 pfu Udorn challenge) was “partial inhibition”. For the same molecule, the “progression of influenza virus” value ([2]; 0.1 nmoles intranasal 1 day prior to 500 pfu Udorn challenge) was “partial inhibition” and the “progression of influenza virus” value ([2]; 5 nmoles intranasal 1 day prior to 500 pfu Udorn challenge) was “partial inhibition”.
With CCCCCCCCCCCCCCCC(=O)OCC(CSC[C@H](N)C(=O)N[C@@H](CO)C(=O)NCCOCCOCCOCCOCCOCCOCCOCCOCCOCCOCCOCCOCCOCCOCCOCCOCCOCCOCCOCCOCCOCCOCCOCCOCCOCCOCCOCCOCCC(=O)NCC(N)=O)OC(=O)CCCCCCCCCCCCCCC (stereo partly drawn) [INNA-011] the half-life at 0.5 μM [3] was 5.47 h, the hepatocyte CLint at 0.5 μM [3] was ≤ 2 µL/min/1e6 cells and the half-life at 0.5 μM [4] was > 6.25 h. For the same molecule, the hepatocyte CLint at 0.5 μM [4] was ≤ 2 µL/min/1e6 cells, the plasma half-life [5] was “could not be calculated due to insufficient degradation” and the half-life at 0.5 μM [6] was 2.88 h. The hepatocyte CLint at 0.5 μM [6] was ≤ 2 µL/min/1e6 cells, the half-life [7] was 5.9 h and the plasma half-life [8] was “could not be calculated due to insufficient degradation”. The half-life at 0.5 μM [9] was 4.73 h and the hepatocyte CLint at 0.5 μM [9] was ≤ 2 µL/min/1e6 cells.
For Pam3Cys-Ser-PEG3000, the solubility in water [10] was “readily soluble in water” and the “ability to signal NF-κB compared with INNA-006” value [11] was “inferior to INNA-006”.

Reference: patent US12195557B2, “Optimised compounds” (AXELIA ONCOLOGY PTY LTD, priority 2017, dated 2025)
